Laboratory results from ChEMBL document CHEMBL5512615, “Targeting autophagy drug discovery: Targets, indications and development trends” (Eur J Med Chem, 2024).
Values belong to the molecule of their own block, whether it stands above or below them.

What was measured:
[1] = molecular target: T1, Patatin-like phospholipase domain-containing protein 2 (Homo sapiens, UniProt Q96AD5)
T1 sequence (Q96AD5 whole entry): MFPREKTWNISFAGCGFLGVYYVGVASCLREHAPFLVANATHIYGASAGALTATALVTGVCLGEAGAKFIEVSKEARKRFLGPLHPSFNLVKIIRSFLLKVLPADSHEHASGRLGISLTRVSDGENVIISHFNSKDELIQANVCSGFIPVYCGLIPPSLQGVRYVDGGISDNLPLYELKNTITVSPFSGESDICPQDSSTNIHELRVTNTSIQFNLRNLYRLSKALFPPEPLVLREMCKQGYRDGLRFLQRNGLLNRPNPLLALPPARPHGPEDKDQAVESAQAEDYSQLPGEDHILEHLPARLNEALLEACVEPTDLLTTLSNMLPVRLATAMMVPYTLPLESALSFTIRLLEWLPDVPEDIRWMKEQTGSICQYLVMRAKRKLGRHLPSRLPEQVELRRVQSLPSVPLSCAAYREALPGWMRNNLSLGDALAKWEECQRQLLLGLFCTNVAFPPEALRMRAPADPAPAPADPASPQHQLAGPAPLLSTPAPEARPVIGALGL
Description: Inhibition of ATGL ubiquitination in human HepG2 cells assessed as inhibition constant

[2] = molecular target: T2, Ubiquitin carboxyl-terminal hydrolase 13 (Homo sapiens, UniProt Q92995)
T2 sequence (Q92995 whole entry): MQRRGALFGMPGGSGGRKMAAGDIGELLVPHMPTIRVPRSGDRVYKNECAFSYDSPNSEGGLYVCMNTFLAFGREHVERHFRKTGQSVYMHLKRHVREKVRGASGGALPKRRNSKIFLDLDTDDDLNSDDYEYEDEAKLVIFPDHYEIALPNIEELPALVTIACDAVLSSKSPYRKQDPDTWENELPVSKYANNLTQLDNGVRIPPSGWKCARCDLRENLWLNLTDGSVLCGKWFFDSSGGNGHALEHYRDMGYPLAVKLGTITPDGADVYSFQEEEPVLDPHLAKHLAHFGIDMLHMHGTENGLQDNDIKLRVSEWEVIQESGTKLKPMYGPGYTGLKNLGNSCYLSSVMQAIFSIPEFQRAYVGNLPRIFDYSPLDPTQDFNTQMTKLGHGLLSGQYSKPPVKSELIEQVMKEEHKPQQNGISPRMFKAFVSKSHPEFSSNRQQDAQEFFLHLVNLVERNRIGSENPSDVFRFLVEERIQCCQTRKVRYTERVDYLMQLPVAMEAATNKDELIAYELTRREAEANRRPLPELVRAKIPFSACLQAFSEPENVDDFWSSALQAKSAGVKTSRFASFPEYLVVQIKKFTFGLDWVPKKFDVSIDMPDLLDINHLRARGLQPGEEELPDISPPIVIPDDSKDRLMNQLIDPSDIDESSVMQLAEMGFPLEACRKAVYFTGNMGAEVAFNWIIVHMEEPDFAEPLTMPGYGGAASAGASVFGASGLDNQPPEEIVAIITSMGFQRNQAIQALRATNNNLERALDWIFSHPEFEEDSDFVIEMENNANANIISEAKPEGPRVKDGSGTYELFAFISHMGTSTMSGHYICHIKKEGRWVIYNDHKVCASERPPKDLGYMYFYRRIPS
Description: Inhibition of USP13 (unknown origin)

[3] = molecular target: Ubiquitin carboxyl-terminal hydrolase 10 (Homo sapiens, UniProt Q14694); assay: Inhibition of USP10 (unknown origin)
Ubiquitin carboxyl-terminal hydrolase 10, sequence (Q14694 whole entry): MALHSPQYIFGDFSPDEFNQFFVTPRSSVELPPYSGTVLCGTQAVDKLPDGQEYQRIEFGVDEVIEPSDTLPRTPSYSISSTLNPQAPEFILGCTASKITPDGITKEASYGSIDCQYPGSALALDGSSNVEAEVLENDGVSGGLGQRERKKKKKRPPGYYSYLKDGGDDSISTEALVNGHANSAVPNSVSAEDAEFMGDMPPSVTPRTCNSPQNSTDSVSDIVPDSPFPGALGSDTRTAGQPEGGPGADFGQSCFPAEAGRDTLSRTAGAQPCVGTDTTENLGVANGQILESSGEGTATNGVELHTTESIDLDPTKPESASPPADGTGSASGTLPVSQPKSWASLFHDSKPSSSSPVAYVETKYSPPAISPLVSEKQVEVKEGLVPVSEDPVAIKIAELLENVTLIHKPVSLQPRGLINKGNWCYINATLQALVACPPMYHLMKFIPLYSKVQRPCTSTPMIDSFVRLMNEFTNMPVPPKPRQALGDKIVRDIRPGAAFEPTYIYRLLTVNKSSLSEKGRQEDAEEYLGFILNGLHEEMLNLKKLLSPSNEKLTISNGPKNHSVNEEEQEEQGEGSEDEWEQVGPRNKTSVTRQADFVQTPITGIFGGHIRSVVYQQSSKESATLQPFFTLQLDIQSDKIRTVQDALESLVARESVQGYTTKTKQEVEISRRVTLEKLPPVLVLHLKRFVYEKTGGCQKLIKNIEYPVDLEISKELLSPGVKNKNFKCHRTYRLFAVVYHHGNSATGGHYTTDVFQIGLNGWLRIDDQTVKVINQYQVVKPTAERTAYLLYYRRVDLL

[4] = molecular target: Ferritin heavy chain (Homo sapiens, UniProt P02794)
Ferritin heavy chain, sequence (P02794 whole entry): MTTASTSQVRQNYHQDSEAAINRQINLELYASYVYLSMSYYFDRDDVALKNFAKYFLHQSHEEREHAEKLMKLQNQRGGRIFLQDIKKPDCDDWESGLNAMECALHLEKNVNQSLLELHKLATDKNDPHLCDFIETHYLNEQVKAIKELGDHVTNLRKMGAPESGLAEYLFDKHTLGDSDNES
Description: Inhibition of FTH1 (unknown origin)

[5] = molecular target: GABA-A receptor; anion channel
Description: Inhibition of GABA receptor (unknown origin)

[6] = test system: A549; assay: cells; settings: Homo sapiens
Description: Antiproliferative activity against human A549 cells assessed as reduction in cell viability by MTT assay

Compound: N[C@@H]1CCCN(c2c(/C=C3\SC(=O)NC3=O)cccc2-c2ccccc2)C1
- Ki [1]: 0.017 nM

Compound: Fc1ccc(CNc2ncnc3ccc(F)cc23)cc1
- IC50 [2]: 690 nM
- IC50 [3]: 580 nM

Compound: OC[C@H]1O[C@@H](c2ccc(Cl)c(Cc3ccc(O[C@H]4CCOC4)cc3)c2)[C@H](O)[C@@H](O)[C@@H]1O [EMPAGLIFLOZIN]
- EC50 [6]: 3 nM

Now from value to molecule:

- IC50 [4]: 1 nM
Compound: C=C1CC[C@H]2O[C@]2(C)CC[C@@H]2[C@@H]1CC2(C)C [(-)-CARYOPHYLLENE OXIDE]

- IC50 [5]: 5900 nM
Compound: C[C@H]1[C@H](C)CC[C@]2(C(=O)O)CC[C@]3(C)C(=CC[C@@H]4[C@@]5(C)C[C@@H](O)[C@H](O)[C@@](C)(CO)[C@@H]5CC[C@]43C)[C@H]12 [ASIATIC ACID]
